From patent US7981896B2 (Athersys, Inc., priority 2006, dated 2011)

Target: T1, human histamine H3 receptor (Homo sapiens, UniProt Q9Y5N1)
T1 construct: endogenous in cells; host or cells: HT1080-Gqαi5 RAGE clone (RAGE-H3), human fibrosarcoma line; integrated RAGE vector pFG8-HH3 supplies exon 1, the cell's own gene supplies the other exons
Assay: Competition radioligand binding assay with [125I]iodoproxyfan on membranes of RAGE-H3 (HT1080-Gqαi5) cells expressing human H3 receptor
Details: ~0.15 nM [125I]iodoproxyfan, 1.5 hrs at room temperature, head does not name the quantity (apparent Ki by Cheng-Prussof)
Procedure: Representative compounds of the present invention that were prepared by the procedures of Examples 1-83 were evaluated in binding assays against cells expressing human H3 receptor by the following procedure.
[^125I]iodoproxyfan (2000 Ci/mmol) was obtained from Amersham Bioscience (Piscataway, N.J.). All other chemicals were either from Sigma-Aldrich (St. Louis, Mo.) or Tocris Cookson Inc. (Ellisville, Mo.).
The human histamine H3 receptor was stably expressed in HT1080 cells containing the chimeric G-protein, Gq[…]i5 (Coward et al., Anal Biochem 1999; 270:242-8). HT1080-Gqαi5 cells were grown in alpha-modified MEM containing 10% fetal bovine serum and 7 μg/ml blasticidin at 37° C. in 5% CO2/95% atmosphere. Cells (4.8×10^9) were irradiated with 50 rads from a ^137Cs source and the pFG8-HH3 RAGE (Random Activation of Gene Expression; see Harrington et al., Nature Biotechnology. 2001; 19:440-45) vector was subsequently integrated into the cells via electroporation (250V, 600 μF, 50Ω). The RAGE vector pFG8-HH3 contained cDNA sequence coding for the first exon (83 amino acids) of human H3 receptor. After electroporation, cells were plated in T75 flasks and grown in alpha-modified MEM. The culture medium was replaced 48 hrs after electroporation with alpha-modified MEM, 10% fetal bovine serum, 500 μg/ml hygromycin B and 3 μg/ml puromycin. Medium was replaced every four days during cell expansion. To identify RAGE activated cells expressing the H3 receptor, pools of approximately 10,000 colonies (5×10^7-1.5×10^8 cells total) were screened by PCR for the desired gene product (using primers specific to the RAGE vector and exon 2 of the H3 receptor). […] Positive 100 cells/well pools were identified by PCR, confirmed by sequencing, and subsequently subcloned to 0.8 cells/well. Once clones expressing the H3 receptor were identified by PCR analysis, assays (FLIPR or radioligand binding) were performed to confirm that the activated gene produced functional protein. The protein expression in the initial clones obtained from the RAGE library was increased by growth in the presence of methotrexate. Since the integrated RAGE vector contains the DHFR gene, such treatment selects for cells that have amplified the genetic locus containing the RAGE insert. Subclones obtained after methotrexate amplification were tested for functional activity in FLIPR assays to identify the clone that was most suitable for HTS. The final HT1080-Gqαi5 RAGE clone (RAGE-H3) expressing the human histamine H3 receptor was grown in alpha-modified MEM containing 10% fetal bovine serum, 3 μg/ml puromycin, 500 μg/ml hygromycin B, 3.2 μM methotrexate at 37° C. in 5% CO2/95% atmosphere.
RAGE-H3 cells (10^9) were washed twice with cold PBS, scraped off the plates, and centrifuged at 1000×g for 5 minutes. Cells were resuspended in ice-cold 10 mM Tris HCl, pH 7.4, containing 5 mM EDTA and protease inhibitor cocktail tablets (Roche Molecular Biochemicals). After incubating on ice for 10 min, the cells were homogenized with a dounce homogenizer or a polytron tissue grinder, and centrifuged at 1000×g for 10 min at 4° C. The resulting supernatant was centrifuged at 32,000×g for 30 min at 4° C. The membrane pellets were resuspended in 50 mM Tris HCl, pH 7.4, and stored at −80° C. until use. Protein concentration was determined by the Bradford method (Bio-Rad Laboratories, CA).
Binding assays were carried out in 96-well polypropylene plates in 50 mM Tris HCl, pH 7.4, containing 1 mM EDTA. Reaction mixtures contained 100 μl of membrane suspension, 50 μl of 4% DMSO, and 50 μl of increasing amounts of [^125I]iodoproxyfan (final concentration 0.0005-1.8 nM for human H3 receptor saturation binding assay). Nonspecific binding was defined by adding 10 μM clobenpropit to the reaction mixtures. […]

T1 sequence (Q9Y5N1 whole entry): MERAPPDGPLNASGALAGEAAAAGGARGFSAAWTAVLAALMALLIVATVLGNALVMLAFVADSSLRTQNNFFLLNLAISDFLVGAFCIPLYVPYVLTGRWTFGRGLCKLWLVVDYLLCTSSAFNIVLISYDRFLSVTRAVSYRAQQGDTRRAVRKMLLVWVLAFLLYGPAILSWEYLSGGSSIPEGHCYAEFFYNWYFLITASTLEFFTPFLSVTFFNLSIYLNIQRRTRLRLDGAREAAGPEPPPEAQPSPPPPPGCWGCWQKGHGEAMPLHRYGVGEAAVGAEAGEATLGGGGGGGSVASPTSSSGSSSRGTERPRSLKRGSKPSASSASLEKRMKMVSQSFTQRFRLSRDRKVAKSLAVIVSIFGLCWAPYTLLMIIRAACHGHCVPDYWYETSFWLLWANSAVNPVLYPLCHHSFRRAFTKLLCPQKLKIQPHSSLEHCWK

Molecule | Ki
Cc1cc(C(C)(C)C)n(-c2ccc(OCCCN3CCCCC3)cc2)n1 [Example 34, 5-tert-Butyl-3-methyl-1-[4-(3-piperidin-1-ylpropoxy)-phenyl]-1H-pyrazole] | < 100 nM
Cc1cc(OCCCN2CCCCC2)ccc1-n1nc(C(C)C)cc1C(C)C [Example 62, 3,5-Diisopropyl-1-[2-methyl-4-(3-piperidin-1-ylpropoxy)phenyl]-1H-pyrazole] | < 10 nM
FC(F)(F)c1cc(-c2ccccc2)n(-c2ccc(OCCCN3CCCC3)cc2)n1 [Example 50, 5-Phenyl-1-[4-(3-pyrrolidin-1-yl-propoxy)-phenyl]-3-trifluoromethyl-1H-pyrazole] | < 10 nM
Cc1cc(C(=O)NC2CCCCC2)n(-c2ccc(OCC3CCCN4CCCCC34)cc2)n1 (stereo not shown) [Example 82, 5-Methyl-2-[4-(octahydroquinolizin-1-ylmethoxy)phenyl]-2H-pyrazole-3-carboxylic acid cyclohexylamide] | > 10000 nM
CCc1cc(CC)n(-c2ccc(OCCCN3CCCC3)cc2)n1 [Example 21, 3,5-Diethyl-1-[4-(3-pyrrolidin-1-ylpropoxy)phenyl]-1H-pyrazole] | < 10 nM
Cc1cc(C(=O)NC2CCCCC2)n(-c2ccc(OCCCN3CCC[C@H]3C)cc2)n1 [Example 74, 5-Methyl-2-{4-[3-(2R-methylpyrrolidin-1-yl)propoxy]phenyl}-2H-pyrazole-3-carboxylic acid cyclohexylamide] | < 1 nM
Cc1nn(-c2ccc(OCCCN3CCC[C@H]3C)cc2)c2c1CCc1ccccc1-2 [Example 2, 3-Methyl-1-{4-[3-(2R-methylpyrrolidin-1-yl)propoxy]phenyl}-4,5-dihydro-1H-benzo[g]indazole] | < 10 nM
Cc1c2c(nn1-c1ccc(OCCCN3CCCC3)cc1)CCC2 [Example 58, 3-Methyl-2-[4-(3-pyrrolidin-1-yl-propoxy)-phenyl]-2,4,5,6-tetrahydro-cyclopentapyrazole] | < 100 nM
Cc1cc(C(=O)NC2CCCCC2)n(-c2ccc(OC3CCN(C4CCCC4)CC3)cc2)n1 [Example 10, 2-[4-(1-Cyclopentyl-piperidin-4-yloxy)phenyl]-5-methyl-2H-pyrazole-3-carboxylic acid cyclohexylamide] | < 10 nM
Cc1cc(C(=O)NC2CCCCC2)n(-c2ccc(OC3CCN(C4CCCCC4)CC3)cc2)n1 [Example 11, 2-[4-(1-Cyclohexylpiperidin-4-yloxy)phenyl]-5-methyl-2H-pyrazole-3-carboxylic acid cyclohexylamide] | < 10 nM
Cc1cc(C(C)(C)C)n(-c2ccc(OCCCN3CCCC3)cc2)n1 [Example 33, 5-tert-Butyl-3-methyl-1-[4-(3-pyrrolidin-1-ylpropoxy)-phenyl]-1H-pyrazole] | < 10 nM
Cc1nn(-c2ccc(OCCCN3CCCC3)cc2)c2c1CC[C@@H]1CCCC[C@@H]21 (relative stereo) [Example 5, 3-Methyl-1-[4-(3-pyrrolidin-1-ylpropoxy)phenyl]-4,5,5a,6,7,8,9,9a-octahydro-1H-benzo[g]indazole] | < 1 nM
Cc1cc(C(C)(C)C)nn1-c1ccc(OCCCN2CCCCC2)cc1 [Example 27, 3-tert-Butyl-5-methyl-1-[4-(3-piperidin-1-ylpropoxy)-phenyl]-1H-pyrazole] | < 10 nM
3-Phenyl-1-[4-(3-pyrrolidin-1-ylpropoxy)phenyl]-4,5,6,7-tetrahydro-2H-indazole [Example 44] | < 100 nM
Cc1cc(C(=O)NC2CCCCC2)nn1-c1ccc(OCCCN2CCCC2)cc1 [Example 83, 5-Methyl-1-[4-(3-pyrrolidin-1-ylpropoxy)phenyl]-1H-pyrazole-3-carboxylic acid cyclohexylamide] | < 10 nM
CC(C)(C)c1cc(-c2ccccc2)n(-c2ccc(OCCCN3CCCC3)cc2)n1 [Example 42, 3-tert-Butyl-5-phenyl-1-[4-(3-pyrrolidin-1-ylpropoxy)phenyl]-1H-pyrazole] | < 10 nM
3-Phenyl-1-[4-(3-pyrrolidin-1-ylpropoxy)phenyl]-4,5,6,7-tetrahydro-1H-indazole [Example 43] | < 1000 nM
Cc1c2c(nn1-c1ccc(OCCCN3CCCC3)cc1)CCCC2 [Example 56, 3-Methyl-2-[4-(3-pyrrolidin-1-yl-propoxy)-phenyl]-4,5,6,7-tetrahydro-2H-indazole] | < 1 nM
Cc1nn(-c2ccc(OCCCN3CCOCC3)cc2)c2c1CCc1ccccc1-2 [Example 3, 3-Methyl-1-[4-(3-morpholin-1-ylpropoxy)phenyl]-4,5-dihydro-1H-benzo[g]indazole] | < 10 nM
COc1ccc2c(c1)-c1c(c(C)nn1-c1ccc(OCCCN3CCCC3)cc1)CC2 [Example 7, 8-Methoxy-3-methyl-1-[4-(3-pyrrolidin-1-ylpropoxy)phenyl]-4,5-dihydro-1H-benzo[g]indazole] | < 100 nM

Results, then the molecule that gave them:

Ki | Molecule
< 10 nM | Cc1cc(C(=O)NC2CCCCC2)n(-c2ccc(OC3CCN(C4CCC4)CC3)cc2)n1 [Example 13, 2-[4-(1-Cyclobutylpiperidin-4-yloxy)phenyl]-5-methyl-2H-pyrazole-3-carboxylic acid cyclohexylamide]
< 10 nM | Cc1c2c(nn1-c1ccc(OCCCN3CCCCC3)cc1)CCC2 [Example 60, 3-Methyl-2-[4-(3-piperidin-1-yl-propoxy)-phenyl]-2,4,5,6-tetrahydro-cyclopentapyrazole]
< 10 nM | Cc1cc(CO)n(-c2ccc(OCCCN3CCCC3)cc2)n1 [Example 14, {5-Methyl-2-[4-(3-pyrrolidin-1-ylpropoxy)phenyl]-2H-pyrazol-3-yl}methanol]
< 100 nM | C[C@@H]1CCCN1CCCOc1ccc(-n2nc(C(F)(F)F)cc2-c2ccccc2)cc1 [Example 51, 1-{4-[3-(2-(R)-Methyl-pyrrolidin-1-yl)-propoxy]-phenyl}-5-phenyl-3-trifluoromethyl-1H-pyrazole]
< 1000 nM | CN(C)C1CCN(CCCOc2ccc(-n3nc(C(F)(F)F)c4oc5ccccc5c43)cc2)C1 (stereo not shown) [Example 68, Dimethyl-(1-{3-[4-(1-trifluoromethyl-8-oxa-2,3-diaza-cyclopenta[a]inden-3-yl)-phenoxy]-propyl}-pyrrolidin-3-yl)-amine]
< 10 nM | CC(C)c1cc(C(C)C)n(-c2ccc(OC3CCN(C4CCC4)CC3)cc2)n1 [Example 32, 1-Cyclobutyl-4-[4-(3,5-diisopropylpyrazol-1-yl)phenoxy]piperidine]
< 10 nM | Cc1nn(-c2ccc(OCCCN3CCCC3)cc2)c2c1CCC2 [Example 57, 3-Methyl-1-[4-(3-pyrrolidin-1-yl-propoxy)-phenyl]-1,4,5,6-tetrahydro-cyclopentapyrazole]
< 1 nM | Cc1cc(C(=O)NC2CCC2)n(-c2ccc(OCCCN3CCCC3)cc2)n1 [Example 80, 5-Methyl-2-[4-(3-pyrrolidin-1-ylpropoxy)phenyl]-2H-pyrazole-3-carboxylic acid cyclobutylamide]
< 10 nM | Cc1nn(-c2ccc(OCCCN3CCCC3)cc2)c2c1CCc1ccccc1-2 [Example 1, 3-Methyl-1-[4-(3-pyrrolidin-1-ylpropoxy)phenyl]-4,5-dihydro-1H-benzo[g]indazole]
< 10 nM | Cc1cc(C(C)(C)C)nn1-c1ccc(OCCCN2CCCC2)cc1 [Example 26, 3-tert-Butyl-5-methyl-1-[4-(3-pyrrolidin-1-ylpropoxy)-phenyl]-1H-pyrazole]
< 10 nM | Cc1nn(-c2ccc(OCCCN3CCCC3C)cc2)c2c1sc1ccccc12 (stereo not shown) [Example 65, 3-Methyl-1-{4-[3-(2-methyl-pyrrolidin-1-yl)-propoxy]-phenyl}-1H-benzo[4,5]thieno[3,2-c]pyrazole]
